Patent US10251894B2, “Anticonvulsant activity of steroids” (The Regents of the University of California, priority 2012, dated 2019)

Assays:
[1] = Plasma allopregnanolone after single i.v. injection (LC-MS); assay type: in vivo, rat; conditions: rats
Method: FIG. 10 illustrates a Time—concentration profile for plasma allopregnanolone (5α,3α-P) after single i.v. injection in rats. Rats bearing indwelling jugular catheters received single i.v. injection of 5α,3α-P or vehicle and serial blood samples were withdrawn at 1, 2, 10,15, 30, 60 and 120 min after injection. Plasma was assayed for 5α,3α-P by LC-MS. Each point represents at least 4 animals.
(§1) The mouse 6 Hz and pentylenetetrazol seizure models were used. Solutions of 5α,3α-P were made in 6% (0.5 and 1.5 mg/ml) sulfobutylether-β-cyclodextrin sodium salt (Captisol®) in 0.9% saline. The solutions were injected i.v. or i.m. (1, 2 and 30 min or 2 and 30 min, respectively) prior to administration of the 6 Hz electrical stimulus or PTZ (80 mg/kg, i.p.). […] Anticonvulsant activity was assessed by the delay in onset of seizure signs. Allopregnanolone plasma levels in rats were determined by LC-MS.
Surgery and Blood Collection. Male rats were implanted with indwelling jugular catheters as described (Baumann, et al., J Neurosci. (1998) 18: 9069-77). Animals were allowed to recover for at least one week. Experiments were carried out while the animal resided in its home cage. Rats received i.v. injection of vehicle or 5α,3α-P and serial blood samples were withdrawn into chilled tubes at 1, 2, 10,15, 30, 60 and 120 min after i.v. injection. 5α,3α-P and D4-5α,3α-P (internal standard) were extracted with SPE method from rat's plasma. The extracted 5α,3α-P and D4-5α,3α-P were quantified with ultra-performance liquid chromatography (UPLC)/Atmospheric-pressure chemical ionization (APCI)/tandem mass spectrometry (MS/MS).

[2] = tested on: PTZ (80 mg/kg, i.p.) seizures; assay: Pentylenetetrazol (PTZ) seizure test; assay type: in vivo, mouse; conditions: mice
Method: as §1
(§2) Animals. Male NIH Swiss mice (22-30 g) served as subjects, and all procedures used in these studies were conducted in accordance with the University of California, Davis, Institutional Animal Care and Use Committee the Animal Care and Use policies in strict compliance with the Guide for the Care and Use of Laboratory Animals of the National Research Council (National Academy Press, Washington, D.C.; on the internet at nap.edu/readingroom/books/labrats/).
(§3) Test Substances and Drug Administration. Allopregnanolone (3α-hydroxy-5α-pregnan-20-one; 5α,3α-P) was synthesized by a SAFC Pharma Inc, Madison, Wis., USA and Captisol (sulfobutylether-beta-cyclodextrin sodium salt) was provided by Ligand Pharmaceuticals, Inc. La Jolla, Calif., USA. Solutions of 5α,3α-P were made in 6% (0.5 and 1.5 mg/ml) or 24% ([…]) sulfobutylether-β-cyclodextrin sodium salt (Captisol®) in 0.9% saline. The volumes used for all injections were 10-20 ml/kg of body weight. In order to establish time courses for protection by 5α,3α-P in the 6-Hz electrical-stimulation (32 mA, 3 s) model, 5α,3α-P (0.5-6 mg/kg) was administered intravenously (i.v.), intramuscularly (i.m.), subcutaneously (s.c.) or orally (p.o.) before electrical stimulation. In the PTZ seizure test, 5α,3α-P or vehicle were administered i.v. or i.m. 1, 2 or 30 min before PTZ.
The time of onset of myoclonic jerks, clonus and tonic extension was recorded.
Data Analysis. Results are expressed as mean±S.E.M.; the significance of the difference in the responses of treatment groups with respect to control is based on one-way analysis of variance (ANOVA) followed by specific post hoc comparisons using Dunnett's test. Differences were considered statistically significant when the probability of error was less than 0.05 (p<0.05).

[3] = tested on: 6 Hz electrical stimulus seizures; assay: 6-Hz seizure test (6-Hz electrical-stimulation, 32 mA, 3 s, model); assay type: in vivo, mouse; conditions: mice
Method: as §1, §2, §3
6-Hz Seizure Test (Kaminski, et al., Epilepsia (2004) 45:1-4): 3-s corneal stimulation (200-μs duration, 32-mA monopolar rectangular pulses at 6 Hz) was delivered by a constant-current device (ECT Unit 5780; Ugo Basile, Comerio, Italy). […] The experimental end point was protection against the seizure: an animal was considered to be protected if it resumed its normal exploratory behavior within 10 s of stimulation.

[4] = i.v. bolus, 0.5 and 1.0 mg/kg pooled
[5] = 0.5 mg/kg i.v. 1 min before PTZ

Structure (SMILES): CC(=O)[C@H]1CC[C@H]2[C@@H]3CC[C@H]4C[C@H](O)CC[C@]4(C)[C@H]3CC[C@]12C [5α,3α-P, 3α-hydroxy-5α-pregnan-20-one]
- mean peak plasma level (2 min) ([1]; i.v. bolus 0.5 mg/kg): 337 ng/mL
- mean peak plasma level (2 min) ([1]; i.v. bolus 1.0 mg/kg): 746 ng/mL
- pooled mean halftime, first component [1, 4]: 2 min
- pooled mean halftime, second component [1, 4]: 22 min
- delay of seizure onset in the PTZ model ([2]; 0.1 mg/kg i.v., all pretreatment times (1, 2 and 30 min)): failed to significantly delay seizure onset
- animals protected from tonic seizures ([2]; 0.25 mg/kg i.m. 2 min before PTZ): 0%
- animals protected from tonic seizures ([2]; 0.5 mg/kg i.m. 2 min before PTZ): 50%
- animals in which tonic seizures and mortality were prevented [2, 5]: 62.5%
- delay for myoclonic jerks and clonic seizures [2, 5]: marked delay
- animals in which tonic seizures were prevented ([2]; 0.5 mg/kg i.v. 2 min before PTZ): 25%
- animals protected from tonic seizures ([2]; 1.5 mg/kg i.m. 2 min before PTZ): 100%
- protection against tonic seizures ([2]; 1.5 mg/kg i.m. 30 min before PTZ): significant protection
- prevention of tonic seizures and mortality ([2]; 1.5 mg/kg i.v. 1 and 2 min before PTZ): completely prevented
- protection against tonic seizures ([2]; 1.5 mg/kg i.v. 30 min before PTZ): inactive
- duration of protective activity in the 6 Hz test ([3]; i.m. 3 mg/kg): < 2 h
- onset of protective activity in the 6 Hz test ([3]; i.m. 3 mg/kg): ≤ 2 min
- protective activity in the 6 Hz test at 30 min ([3]; i.v. 1.5 mg/kg, 30 min after infusion): inactive
- time after injection with protective activity in the 6 Hz test ([3]; i.v. infusion 1.5 mg/kg): 1 to 15 min
- bioavailability after oral administration ([3]; p.o. in the 6-Hz model, inferred from time course): Low bioavailability
